From patent US12589087B2, “Enantiomer selective action on neurotransmission” (The Board of Trustees of the Leland Stanford Junior …, priority 2021, dated 2026)

Assays:
human glutaminase GLS1 = target: T1, human glutaminase GLS1 (Homo sapiens, UniProt O94925); assay: Catalysis of 2MeGln hydrolysis by GLS1 glutaminase; format: biochemical; conditions: 10 mM substrate
T1 construct: purchased Sigma SRP0516
T1 sequence (O94925 55-669): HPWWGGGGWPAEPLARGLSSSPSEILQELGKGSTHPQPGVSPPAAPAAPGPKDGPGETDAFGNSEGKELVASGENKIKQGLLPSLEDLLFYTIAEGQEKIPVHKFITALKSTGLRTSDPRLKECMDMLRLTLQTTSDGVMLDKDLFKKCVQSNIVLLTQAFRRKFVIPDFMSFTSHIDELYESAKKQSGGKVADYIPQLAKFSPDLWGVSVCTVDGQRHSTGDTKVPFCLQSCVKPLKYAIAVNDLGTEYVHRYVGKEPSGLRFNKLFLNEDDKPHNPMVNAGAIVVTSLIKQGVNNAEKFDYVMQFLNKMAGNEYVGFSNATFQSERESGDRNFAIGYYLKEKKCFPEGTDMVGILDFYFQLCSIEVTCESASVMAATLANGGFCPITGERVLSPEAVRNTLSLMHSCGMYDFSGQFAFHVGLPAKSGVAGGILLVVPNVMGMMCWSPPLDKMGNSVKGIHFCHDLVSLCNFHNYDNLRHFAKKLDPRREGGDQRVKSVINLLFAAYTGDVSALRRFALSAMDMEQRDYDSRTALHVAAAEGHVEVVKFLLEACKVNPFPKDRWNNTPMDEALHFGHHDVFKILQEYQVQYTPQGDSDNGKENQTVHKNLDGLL
Experimental: The procedure was adapted from an existing protocol. To a reaction mixture in a 1.5 mL microcentrifuge tube containing 10 mM rac-2MeGln or L-Gln-^13C2 in 100 mM phosphate pH 7.4 buffer made in 20% atom ^18O water, recombinant GLS1 (final concentration: 5 ng/mL) was added. The tubes were incubated in a preheated thermomixer at 37° C. and periodically shaken at 600 rpm (30 s on, 30 s off). 5 μL aliquots were collected in triplicate every 5 min and immediately diluted with 195 μL of cold 60% ACN containing 10 μM Glu-d5 and Gln-d5 as internal standards in a 96 well plate. After collecting all samples, the plate was shaken at 1000 rpm for 5 min at room temperature, and then stored at −80° C. Before analysis the plate was thawed and 10 μL aliquots of the extracted reaction mixtures were diluted with 190 μL of 90% acetonitrile.
The quantification of the newly formed 2MeGlu in the presence of the preexisting trace amounts was performed in the following way. Peak area ratio of Glu-^13C2 to Glu-^13C2^18O was calculated in all samples containing Glu-^13C2. The mean ratio value was then applied to calculate the hypothetical peak area of the newly formed 2MeGlu based on the directly measured 2MeGlu-^18O peak area. The ratio of the newly formed 2MeGlu peak area and the total 2MeGlu peak area was applied to calculate the concentration of the newly formed 2MeGlu from the total 2MeGlu concentration determined directly using the calibration curve.

[1] = test system: mouse hippocampal slice cultures; assay: Kainic acid neurodegeneration in hippocampal slice cultures (propidium iodide); format: cell-based
Experimental: We employed a standard technique of ex vivo experimentation to determine the efficacy of 2MeGlu, 2MeGln, and 4APA to prevent neurodegeneration. Mouse hippocampal slice cultures were prepared and then exposed to one of the three test compounds at either 5 or 50 μM for one hour. Then media was changed to contain either 2 or 5 μM kanic acid (KA) for 24 hr. […] After 24, the amount of neurodegeneration was assayed with propidium iodide staining. Increasing the dose of KA led to greater neurodegeneration at 5 μM than at 2 μM.

MPTP model of PD = assay: MPTP model of PD, fine motor kinematic score; format: in vivo, mouse; conditions: 50 mg/kg/d IP, days −5 to 14
Experimental: Five groups of mice were treated with 40 mg/kg/d MPTP IP on days 1 and 2 and two concentrations of two test agents IP from days −5 to day 14 (FIG. 22). One group received vehicle, two groups received 5 or 50 mg/kg/d S-2MeGlu, and two groups received 5 or 50 mg/kg/d R-4APA. […] The high-precision fine motor kinematic protocol quantifies over 100 indices of gait and balance and integrates them into an overall kinematic score; higher score indicates greater impairment. […] Mice were sacrificed on day 15 and striatal dopamine as well as its major metabolites were quantified by HPLC with electrochemical detection.

| Structure (SMILES) | apparent GLS1 reaction rate, lower compared to that of Gln (human glutaminase GLS1) | apparent reaction rate of GLS1 hydrolysis (human glutaminase GLS1; 5 ng/mL enzyme, phosphate pH 7.4) [µM/min] | reduction of neurodegeneration ([1]; 50 μM compound, lower dose of KA (2 μM)) | neuroprotection at the higher dose of KA ([1]; 5 or 50 μM compound, 5 μM KA) | rescue of motor deficit from MPTP (overall kinematic score) (MPTP model of PD) |
| --- | --- | --- | --- | --- | --- |
| CC(N)(CCC(N)=O)C(=O)O (racemic) [rac-2MeGln, rac-2-methylglutamine] | approximately 35 fold | 1.9 | approximately 50% | Neither dose of 2MeGlu or 2MeGln was neuroprotective | – |
| C[C@](N)(CCC(=O)O)C(=O)O [(S)-2MeGlu, (S)-2-methylglutamic acid] | – | – | – | – | significantly rescued the motor deficit from MPTP |
